In patent US20240425524A1, “SPIROTRICYCLE RIPK1 INHIBITORS AND METHODS OF USES THEREOF” (Merck Sharp & Dohme LLC, priority 2021, published 2024) one finds EC50 data, which are given here for 26 compounds.

This assay has as its target RIPK1 (Homo sapiens (Human), UniProt Q13546). The experiment in a line: RIPK1-ADP-Glo Enzymatic Assay. It counts as biochemical. The following applies: recombinant GST-RIPK1 kinase domain (residues 1-327), 25 nM, ten-point titration, 30 minutes pre-incubation. How it is done: The enzymatic activity of RIPK1 was measured using an assay derived from ADP-Glo kit (™Promega), which provides a luminescent-based ADP detection system. Specifically, the ADP generated by RIPK1 kinase was proportionally detected as luminescent signals in a homogenous fashion. In this context, the assessment of the inhibitory effect of small molecules (EC50) was measured by the effectiveness of the compounds to inhibit the ATP to ADP conversion by RIPK1.
In this assay, the potency (EC50) of each compound was determined from a ten-point (1:3 serial dilution: top compound concentration of 100000 nM) titration curve using the following outlined procedure. To each well of a white ProxiPlus 384 well-plate, 30 nL of compound (1% DMSO in final assay volume of 3 μL) was dispensed, followed by the addition of 2 μL of 1x assay buffer (25 mM Hepes 7.3, 20 mM MgCl2, 50 mM NaCl, 1 mM DTT, 0.005% Tween20, and 0.02% BSA) containing 37.5 nM of GST-RIPK1 (recombinant GST-RIPK1 kinase domain (residues 1-327) enzyme produced from baculovirus-transfected Sf21 cells: MW=62 kDa). Plates were placed in an ambient temperature humidified chamber for a 30 minutes pre-incubation with compound. Subsequently, each reaction was initiated by the addition of 1 μL 1× assay buffer containing […] dephosphorylated-MBP substrate. The final reaction in each well of 3 μL consists of 25 nM of GST-RIPK1, 300 µM ATP, and 3 μM dephosphorylated-MBP. Kinase reactions were allowed to proceed for 150 minutes prior to adding ADP-Glo reagents per Promega's outlined kit protocol. Dose-response curves were generated by plotting percent effect (% product conversion: Y-axis) vs. Logio compound concentrations (X-axis). EC50 values were calculated using a non-linear regression, four-parameters sigmoidal dose-response model and are provided for example compounds of the invention (labeled “RIPK1 EC50 (nM)” throughout the above examples).
(In general: ADP-Glo first removes unused ATP, then detects ADP through luciferase.)

RIPK1, sequence (Q13546 1-327): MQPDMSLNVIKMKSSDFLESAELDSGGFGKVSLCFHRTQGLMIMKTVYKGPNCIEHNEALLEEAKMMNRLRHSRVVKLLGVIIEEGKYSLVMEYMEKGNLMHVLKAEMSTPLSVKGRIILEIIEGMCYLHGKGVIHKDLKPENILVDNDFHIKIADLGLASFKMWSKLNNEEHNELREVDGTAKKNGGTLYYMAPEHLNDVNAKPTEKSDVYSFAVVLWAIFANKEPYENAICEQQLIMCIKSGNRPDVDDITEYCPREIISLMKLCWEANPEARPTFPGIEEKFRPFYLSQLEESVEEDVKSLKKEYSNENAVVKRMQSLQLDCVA

Usually EC50 stands for the concentration that produces a half-maximal response. On to `Cc1cnc(N2CCC3(CC2)CN2CC[C@@H](c4cc(F)cc(F)c4)N2C3=O)nc1` [Example 1.6, (7′S)-7′-(3,5-difluorophenyl)-1-(5-methylpyrimidin-2-yl)dihydro-1′H,3′H,5′H-spiro[piperidine-4,2′-pyrazolo[1,2-a]pyrazol]-1′-one], for which the EC50 amounted to 393 nM.
In the case of `O=C(c1cccnc1)N1CCC2(CC1)CN1CC[C@@H](c3cc(F)cc(F)c3)N1C2=O` [Example 4.4, (S)-7′-(3,5-difluorophenyl)-1-nicotinoyldihydro-1′H,3′H,5′H-spiro[piperidine-4,2′-pyrazolo[1,2-a]pyrazol]-l′-one], the concentration for a half-maximal effect (EC50) was 209 nM.
For the compound `CSc1cc(N2CCC3(CC2)CN2CC[C@@H](c4cc(F)cc(F)c4)N2C3=O)ncn1` [Example 1.14, (S)-7′-(3,5-difluorophenyl)-1-(6-(methylthio)pyrimidin-4-yl)dihydro-1′H,3′H,5′H-spiro[piperidine-4,2′-pyrazolo[1,2-a]pyrazol]-1′-one], the EC50 is 17 nM.
Take `O=C1N2[C@H](c3cc(F)cc(F)c3)CCN2CC12CCN(c1nccn3nccc13)CC2` [Example 2.11, (S)-7′-(3,5-difluorophenyl)-1-(pyrazolo[1,5-a]pyrazin-4-y1)dihydro-l′H,3′H,5′H-spiro[piperidine-4,2′-pyrazolo[1,2-a]pyrazol]-1′-one]: the EC50 was found to be 34 nM.
Next, `O=C1N2[C@H](c3cc(F)cc(F)c3)CCN2CC12CCN(c1cccc(F)n1)CC2` [Example 1.12, (7′S)-7′-(3,5-difluorophenyl)-1-(6-fluoropyridin-2-yl)dihydro-1′H,3′H,5′H-spiro[piperidine-4,2′-pyrazolo[1,2-a]pyrazol]-1′-one]: 29 nM; `Cc1nc(N2CCC3(CC2)CN2CC[C@@H](c4cc(F)cc(F)c4)N2C3=O)ccc1Cl` [Example 11.1, (S)-1-(5-chloro-6-methylpyridin-2-yl)-7′-(3,5-difluorophenyl) dihydro-1′H,3′H,5′H-spiro [piperidine-4,2′-pyrazolo[1,2-α]pyrazol]-1′-one]: 23 nM.
The same measure for `O=C(c1cc(F)c(F)cc1F)N1CCC2(CC1)CN1CC[C@@H](c3cc(F)cc(F)c3)N1C2=O` [Example 4.11, (S)-7′-(3,5-difluorophenyl)-1-(2,4,5-trifluorobenzoyl) dihydro-1′H,3′H,5′H-spiro[piperidine-4,2′-pyrazolo[1,2-a]pyrazol]-l′-one]: 19 nM; for `O=C1N2[C@H](c3cc(F)cc(F)c3)CCN2CC12CCN(c1ncnc3scnc13)CC2` [Example 3.1]: 24 nM.
Next, `COc1nccc(N2CCC3(CC2)CN2CC[C@@H](c4cc(F)cc(F)c4)N2C3=O)n1` [Example 1.84, (S)-7′-(3,5-difluorophenyl)-1-(2-methoxypyrimidin-4-yl)dihydro-1′H,3′H,5′H-spiro[piperidine-4,2′-pyrazolo[1,2-a]pyrazol]-1′-one]: 30 nM; `O=C1N2[C@H](c3cc(F)cc(F)c3)CCN2CC12CCN(c1cccc(F)n1)CC2` [Example 1.71, (S)-7′-(3,5-difluorophenyl)-1-(6-fluoropyridin-2-yl)dihydro-1′H,3′H,5′H-spiro[piperidine-4,2′-pyrazolo[1,2-a]pyrazol]-1′-one]: 28 nM; `O=C1N2[C@H](c3cc(F)cc(F)c3)CCN2CC12CCN(c1cc(Br)cc(F)n1)CC2` [Example 1.60, (S)-1-(4-bromo-6-fluoropyridin-2-yl)-7′-(3,5-difluorophenyl)dihydro-1′H,3′H,5′H-spiro[piperidine-4,2′-pyrazolo[1,2-a]pyrazol]-1′-one]: 17 nM.
`Cc1nccc(N2CCC3(CC2)CN2CC[C@@H](c4cc(F)cc(F)c4)N2C3=O)n1` [Example 1.45, (S)-7′-(3,5-difluorophenyl)-1-(2-methylpyrimidin-4-yl)dihydro-1′H,3′H,5′H-spiro[piperidine-4,2′-pyrazolo[1,2-a]pyrazol]-1′-one]: the EC50 amounted to 176 nM.
The same measure for `O=C(c1cc(F)ccc1Cl)N1CCC2(CC1)CN1CC[C@@H](c3cc(F)cc(F)c3)N1C2=O` [Example 4.20, (S)-1-(2-chloro-5-fluorobenzoyl)-7′-(3,5-difluorophenyl) dihydro-1′H,3′H,5′H-spiro[piperidine-4,2′-pyrazolo[1,2-a]pyrazol]-l′-one]: 50 nM; for `O=C1N2[C@H](c3cc(F)cc(F)c3)CCN2CC12CCN(c1ccnc(C3CC3)n1)CC2` [Example 1.46, (S)-1-(2-cyclopropylpyrimidin-4-yl)-7′-(3,5-difluorophenyl)dihydro-1′H,3′H,5′H-spiro[piperidine-4,2′-pyrazolo[1,2-a]pyrazol]-1′-one]: 59 nM.
The same measure for `O=C1N2[C@H](c3cc(F)cc(F)c3)CCN2CC12CCN(c1ncc(Br)cn1)CC2` [Example 1.54, (S)-1-(5-bromopyrimidin-2-yl)-7′-(3,5-difluorophenyl)dihydro-1′H,3′H,5′H-spiro[piperidine-4,2′-pyrazolo[1,2-a]pyrazol]-1′-one]: 17 nM; for `O=C(c1c(F)ccc(F)c1F)N1CCC2(CC1)CN1CC[C@@H](c3cc(F)cc(F)c3)N1C2=O` [Example 4.9, (S)-7′-(3,5-difluorophenyl)-1-(2,3,6-trifluorobenzoyl) dihydro-1′H,3′H,5′H-spiro[piperidine-4,2′-pyrazolo[1,2-a]pyrazol]-l′-one]: 31 nM.
The same measure for `O=C1N2[C@H](c3cc(F)cc(F)c3)CCN2CC12CCN(c1cccc(CO)n1)CC2` [Example 1.4, (7′S)-7′-(3,5-difluorophenyl)-1-[6-(hydroxymethyl)pyridin-2-yl]dihydro-1′H,3′H,5′H-spiro [piperidine-4,2′-pyrazolo[1,2-a]pyrazol]-1′-one]: 629 nM.
Consider `O=C1N2[C@H](c3cc(F)cc(F)c3)CCN2CC12CCN(c1ccnc3ccccc13)CC2` [Example 2.7, (S)-7′-(3,5-difluorophenyl)-1-(quinolin-4-yl)dihydro-1′H,3′H,5′H-spiro[piperidine-4,2′-pyrazolo[1,2-a]pyrazol]-1′-one], for which the EC50 was 24 nM.
As to `N#Cc1ccnc(N2CCC3(CC2)CN2CC[C@@H](c4cc(F)cc(F)c4)N2C3=O)n1` [Example 1.75, (S)-2-(7′-(3,5-difluorophenyl)-1′-oxodihydro-1′H,3′H,5′H-spiro[piperidine-4,2′-pyrazolo[1,2-a]pyrazol]-1-yl)pyrimidine-4-carbonitrile], the EC50 was found to be 49 nM.
Regarding `O=C(c1ccc(F)c(F)c1)N1CCC2(CC1)CN1CC[C@@H](c3cc(F)cc(F)c3)N1C2=O` [Example 4.24, (S)-1-(3,4-difluorobenzoyl)-7′-(3,5-difluorophenyl) dihydro-1′H,3′H,5′H-spiro[piperidine-4,2′-pyrazolo[1,2-a]pyrazol]-l′-one], the EC50 was 32 nM.
Next, `COc1nc(OC)nc(N2CCC3(CC2)CN2CC[C@@H](c4cc(F)cc(F)c4)N2C3=O)n1` [Example 1.31, (S)-7′-(3,5-difluorophenyl)-1-(4,6-dimethoxy-1,3,5-triazin-2-yl)dihydro-1′H,3′H,5′H-spiro [piperidine-4,2′-pyrazolo[1,2-a]pyrazol]-1′-one]: 285 nM.
`Cc1ccc(C(=O)N2CCC3(CC2)CN2CC[C@@H](c4cc(F)cc(F)c4)N2C3=O)cc1` [Example 4.3, (S)-7′-(3,5-difluorophenyl)-1-(4-methylbenzoyl)dihydro-1′H,3′H,5′H-spiro[piperidine-4,2′-pyrazolo[1,2-a]pyrazol]-l′-one]: the EC50 stood at 38 nM.
On to `O=C1N2[C@H](c3cc(F)cc(F)c3)CCN2CC12CCN(c1cccc3ccnn13)CC2` [Example 8.2, (S)-7′-(3,5-difluorophenyl)-1-(pyrazolo[1,5-α]pyridin-7-yl) dihydro-1′H,3′H,5′H-spiro [piperidine-4,2′-pyrazolo[1,2-α]pyrazol]-1′-one], for which the EC50 came to 34 nM.
The same measure for `Cc1cnn(-c2cnc(N3CCC4(CC3)CN3CC[C@@H](c5cc(F)cc(F)c5)N3C4=O)cn2)c1` [Example 2.15, (S)-7′-(3,5-difluorophenyl)-1-(5-(4-methyl-1H-pyrazol-1-yl)pyrazin-2-yl)dihydro-l′H,3′H,5′H-spiro[piperidine-4,2′-pyrazolo[1,2-a]pyrazol]-1′-one]: 80 nM.
The same measure for `O=C1N2[C@H](c3cc(F)cc(F)c3)CCN2CC12CCN(c1ccc(F)cc1)CC2` [Example 10.3, (S)-7′-(3,5-difluorophenyl)-1-(4-fluorophenyl)dihydro-1′H,3′H,5′H-spiro[piperidine-4,2′-pyrazolo[1,2-a]pyrazol]-l′-one]: 122 nM; for `O=C1N2[C@H](c3cc(F)cc(F)c3)CCN2CC12CCN(c1cc(-n3ccnc3)ncn1)CC2` [Example 1.18, (S)-1-(6-(1H-imidazol-1-yl)pyrimidin-4-yl)-7′-(3,5-difluorophenyl)dihydro-1′H,3′H,5′H-spiro[piperidine-4,2′-pyrazolo[1,2-a]pyrazol]-1′-one]: 27 nM.
